Reference: ChEMBL document CHEMBL5634120, “Natural phytoalexins inspired the discovery of new biphenyls as potent antifungal agents for treatment of invasive fungal infections” (Eur J Med Chem, 2023)
In brackets after ≈: the same amount, converted by molar mass. Activity calls are given as the source filed them. The calls are words filed in the database; no cut-off is given here.

Legend:
Candida tropicalis = test: Antifungal activity against Candida tropicalis ATCC1369 assessed as inhibition of fungal growth incubated for 72 hrs by broth microdilution method; type: functional
Aspergillus fumigatus = test: Antifungal activity against Aspergillus fumigatus AS3.3913 assessed as inhibition of fungal growth incubated for 72 hrs by broth microdilution method; type: functional
Cryptococcus neoformans [1] = test: Antifungal activity against Cryptococcus neoformans ATCC32045 assessed as inhibition of fungal growth incubated for 72 hrs by broth microdilution method; type: functional
Candida albicans = test: Antifungal activity against Candida albicans ATCC10231 assessed as inhibition of fungal growth incubated for 72 hrs by broth microdilution method; type: functional
Cryptococcus neoformans [2] = test: Antibiofilm activity against Cryptococcus neoformans ATCC32045 assessed as reduction in 24 hrs preformed biofilm at 1 ug/ml incubated for 24 hrs by XTT reduction assay relative to control; type: functional; parameters: scale not given: the % may be the effect or the level left; settings: dose 1 µg/ml
Cell membrane [3] = test: Disruption of cell membrane in Cryptococcus neoformans ATCC32045 assessed as cell shrinkage at 2 ug/ml incubated for 12 hrs by scanning electron microscopy analysis; type: subcellular; settings: dose 2.0 µg/ml
Cell membrane [4] = test: Disruption of cell membrane in Cryptococcus neoformans ATCC32045 assessed as cell wrinkling at 2 ug/ml incubated for 12 hrs by scanning electron microscopy analysis; type: subcellular; settings: dose 2.0 µg/ml
Cryptococcus neoformans [5] = test: Fungicidal activity against Cryptococcus neoformans ATCC32045 incubated for 72 hrs; type: functional
Cell membrane [6] = test: Disruption of membrane integrity in Cryptococcus neoformans ATCC32045 assessed as blue fluorescence at 2 ug/ml incubated for 4 hrs by DAPI staining based fluorescence microscopic analysis; type: subcellular; settings: dose 2.0 µg/ml
Cryptococcus neoformans [7] = test: Antibiofilm activity against Cryptococcus neoformans ATCC32045 assessed as inhibition of biofilm formation incubated for 24 hrs by XTT reduction assay; type: functional, organism-based; settings: dose 0.125-8 µg/ml
Cryptococcus neoformans [8] = test: Antifungal activity against Cryptococcus neoformans ATCC32045 assessed as inhibition of melanin production at 8 ug/ml; type: functional, organism-based; settings: dose 8.0 µg/ml
Cryptococcus neoformans [9] = test: Antifungal activity against Cryptococcus neoformans ATCC32045 assessed as inhibition of urease production at 2 ug/ml; type: functional, organism-based; settings: dose 2.0 µg/ml
Cell membrane [10] = test: Disruption of cell membrane in Cryptococcus neoformans ATCC32045 assessed as cell disintegration at 2 ug/ml incubated for 12 hrs by scanning electron microscopy analysis; type: subcellular; settings: dose 2.0 µg/ml
Cryptococcus neoformans [11] = test: Selectivity ratio of MFC for Cryptococcus neoformans ATCC32045 to MIC for Cryptococcus neoformans ATCC32045; type: functional
Cryptococcus neoformans [12] = test: Disruption of 24 hrs preformed biofilm in Cryptococcus neoformans ATCC32045 incubated for 24 hrs by XTT reduction assay; type: functional, organism-based; settings: dose 0.125-8 µg/ml
Cryptococcus neoformans [13] = test: Fungicidal activity against Cryptococcus neoformans ATCC32045 assessed as reduction in viable colony counts at 0.5 to 1 ug/ml observed within 4 hrs by time kill assay (reference value: 6 log10CFU/ml); type: functional; settings: dose 0.5-1 µg/ml
Cryptococcus neoformans [14] = test: Fungicidal activity against Cryptococcus neoformans ATCC32045 assessed as reduction in viable colony count incubated for 12 hrs by time kill assay; type: functional, organism-based
Cell membrane [15] = test: Disruption of membrane integrity in Cryptococcus neoformans ATCC32045 assessed as red fluorescence at 2 ug/ml incubated for 4 hrs by PI staining based fluorescence microscopic analysis; type: subcellular; settings: dose 2.0 µg/ml
Cryptococcus neoformans [16] = test: Antibiofilm activity against Cryptococcus neoformans ATCC32045 assessed as inhibition of biofilm formation at >=4 ug/ml incubated for 24 hrs by XTT reduction assay relative to control; type: functional; settings: dose >= 4 µg/ml
[17] = Cytotoxicity against HUVEC cells assessed as inhibition of cell viability incubated for 24 hrs by CCK-8 assay; type: toxicity, cell-based; settings: human
[18] = Selectivity index, ratio of CC50 for HUVEC cells to MIC for antifungal activity against Cryptococcus neoformans ATCC32045; type: toxicity; settings: human, read-out: Selectivity Index

| SMILES | MIC (Candida tropicalis) | MIC (Aspergillus fumigatus) | MIC (Cryptococcus neoformans [1]) | MIC (Candida albicans) | other results |
| --- | --- | --- | --- | --- | --- |
| CCCCCc1ccc(-c2cc(O)c(O)c(OC)c2)cc1 | 2 µg/mL (≈ 6.98 µM) | 512 µg/mL (≈ 1790 µM) | 2 µg/mL (≈ 6.98 µM) | 8 µg/mL (≈ 27.9 µM) |  |
| COc1cc(-c2ccccc2)cc(OC)c1O [AUCUPARIN] | > 512 µg/mL | > 512 µg/mL | 64 µg/mL (≈ 278 µM) | > 512 µg/mL |  |
| C=CCOc1cc(-c2ccccc2)cc(OC)c1OCC=C | > 512 µg/mL | > 512 µg/mL | > 512 µg/mL | > 512 µg/mL |  |
| CCCCCc1ccc(-c2ccc(O)c(O)c2O)cc1 | 4 µg/mL (≈ 14.7 µM) | 32 µg/mL (≈ 117 µM) | 4 µg/mL (≈ 14.7 µM) | 8 µg/mL (≈ 29.4 µM) |  |
| COc1cc(-c2ccc(O)cc2)cc(O)c1O | > 512 µg/mL | > 512 µg/mL | > 512 µg/mL | > 512 µg/mL |  |
| CCCCCc1ccc(-c2ccc(O)c(O)c2)cc1 | 2 µg/mL (≈ 7.8 µM) | 16 µg/mL (≈ 62.4 µM) | 0.25 µg/mL (≈ 0.975 µM) | 4 µg/mL (≈ 15.6 µM) | MFC (Cryptococcus neoformans [5]): 0.5 µg/mL (≈ 1.95 µM); Selectivity ratio (Cryptococcus neoformans [11]): 2 |
| C[C@@H]1[C@H](O)[C@@H](C)/C=C/C=C/C=C/C=C/C=C/C=C/C=C/[C@H](O[C@@H]2O[C@H](C)[C@@H](O)[C@H](N)[C@@H]2O)C[C@@H]2O[C@](O)(C[C@@H](O)C[C@@H](O)[C@H](O)CC[C@@H](O)C[C@@H](O)CC(=O)O[C@H]1C)C[C@H](O)[C@H]2C(=O)O [AMPHOTERICIN B] | 0.5 µg/mL (≈ 0.541 µM) | 2 µg/mL (≈ 2.16 µM) | 0.25 µg/mL (≈ 0.271 µM) | 0.5 µg/mL (≈ 0.541 µM) | Selectivity ratio [18]: 16; MFC (Cryptococcus neoformans [5]): 2 µg/mL (≈ 2.16 µM); Activity (Cell membrane [6]): Active; Activity (Cryptococcus neoformans [13]): 4 log10CFU/ml; Activity (Cryptococcus neoformans [14]): Dose-Dependent Effect; Activity (Cell membrane [15]): Active; CC50 at 24 h [17]: 4.12 µg/mL (≈ 4.46 µM) |
| COc1cc(-c2ccc(C(C)C)cc2)cc(O)c1O | 16 µg/mL (≈ 61.9 µM) | 64 µg/mL (≈ 248 µM) | 8 µg/mL (≈ 31 µM) | 16 µg/mL (≈ 61.9 µM) |  |

The next lines start with results.

| MIC (Candida tropicalis) | MIC (Aspergillus fumigatus) | MIC (Cryptococcus neoformans [1]) | MIC (Candida albicans) | SMILES | other results |
| --- | --- | --- | --- | --- | --- |
| 128 µg/mL (≈ 524 µM) | 128 µg/mL (≈ 524 µM) | 32 µg/mL (≈ 131 µM) | 128 µg/mL (≈ 524 µM) | CCc1cccc(-c2cc(O)c(O)c(OC)c2)c1 |  |
| 1 µg/mL (≈ 3.9 µM) | 8 µg/mL (≈ 31.2 µM) | 0.25 µg/mL (≈ 0.975 µM) | 2 µg/mL (≈ 7.8 µM) | CCCCCc1ccc(-c2cc(O)cc(O)c2)cc1 | Activity (Cryptococcus neoformans [2]): ~71.6%; Activity (Cell membrane [3]): Active; Activity (Cell membrane [4]): Active; MFC (Cryptococcus neoformans [5]): 1 µg/mL (≈ 3.9 µM); Activity (Cell membrane [6]): Active; Activity (Cryptococcus neoformans [7]): Dose-Dependent Effect; Activity (Cryptococcus neoformans [8]): Active; Activity (Cryptococcus neoformans [9]): Active; Activity (Cell membrane [10]): Active; Selectivity ratio (Cryptococcus neoformans [11]): 4; Activity (Cryptococcus neoformans [12]): Dose-Dependent Effect; Activity (Cryptococcus neoformans [13]): 4 log10CFU/ml; Activity (Cryptococcus neoformans [14]): Dose-Dependent Effect; Activity (Cell membrane [15]): Active; inhibition (INH) (Cryptococcus neoformans [16]): ~100%; CC50 at 24 h [17]: 19.4 µg/mL (≈ 75.7 µM) |
| 16 µg/mL (≈ 58.7 µM) | 64 µg/mL (≈ 235 µM) | 4 µg/mL (≈ 14.7 µM) | 16 µg/mL (≈ 58.7 µM) | COc1cc(-c2ccc(C(C)(C)C)cc2)cc(O)c1O |  |
| 4 µg/mL (≈ 13.3 µM) | > 512 µg/mL | 1 µg/mL (≈ 3.33 µM) | 512 µg/mL (≈ 1700 µM) | CCCCCCc1ccc(-c2cc(O)c(O)c(OC)c2)cc1 |  |
| 512 µg/mL (≈ 1900 µM) | 512 µg/mL (≈ 1900 µM) | 512 µg/mL (≈ 1900 µM) | 512 µg/mL (≈ 1900 µM) | COc1cc(-c2ccc(CCC#N)cc2)cc(O)c1O |  |
| > 512 µg/mL | > 512 µg/mL | 4 µg/mL (≈ 12.2 µM) | > 512 µg/mL | CCCCCCCCc1ccc(-c2cc(O)c(O)c(OC)c2)cc1 |  |
| 32 µg/mL (≈ 99 µM) | 128 µg/mL (≈ 396 µM) | 8 µg/mL (≈ 24.8 µM) | 32 µg/mL (≈ 99 µM) | COc1cc(-c2ccc(CCBr)cc2)cc(O)c1O |  |
| 512 µg/mL (≈ 1630 µM) | > 512 µg/mL | 2 µg/mL (≈ 6.36 µM) | 512 µg/mL (≈ 1630 µM) | CCCCCCCc1ccc(-c2cc(O)c(O)c(OC)c2)cc1 |  |
| 16 µg/mL (≈ 62.4 µM) | 64 µg/mL (≈ 250 µM) | 2 µg/mL (≈ 7.8 µM) | 16 µg/mL (≈ 62.4 µM) | CCCCCc1ccc(-c2cc(O)ccc2O)cc1 |  |
| 4 µg/mL (≈ 16.5 µM) | 16 µg/mL (≈ 66 µM) | 0.5 µg/mL (≈ 2.06 µM) | 4 µg/mL (≈ 16.5 µM) | CCCCc1ccc(-c2ccc(O)c(O)c2)cc1 |  |
| > 512 µg/mL | 128 µg/mL (≈ 390 µM) | > 512 µg/mL | > 512 µg/mL | COc1cc(-c2cc(C(C)(C)C)cc(C(C)(C)C)c2)cc(O)c1O |  |
| 512 µg/mL (≈ 1720 µM) | > 512 µg/mL | 2 µg/mL (≈ 6.7 µM) | 512 µg/mL (≈ 1720 µM) | COc1cc(-c2ccc(C3CCCCC3)cc2)cc(O)c1O |  |
